The text below walks through data of patent US6943195B2, “Cycloalkenone derivative” (Nikken Chemicals Co., Ltd, priority 2001, dated 2005).

Assay [1] deals with T1, Type IV PDE.
T1 construct: PDE IV partially purified from rat neutrophils, 3H-cAMP substrat; PDE IV from rat neutrophils, 3H-cAMP substrate; other: ratio to racemate
In words: PDE IV inhibitory activity (Test Example 1). The assay is classed as biochemical, rat. To be noted: for IC50: 3H-cAMP substrate; for PDE IV inhibitory activity relative to that of the racemate: ratio to racemate. As for the experimental part: (§1) To investigate the PDE inhibitory activity and selectivity of the compound, Type I, Type III, Type IV and Type V, that is, four types of PDE isozymes were prepared Trends Pharmacol. Sci. (TiPS), vol. 12, 19-27(1991). The Type I PDE used was one purchased from Sigma. Further, the Type III, Type IV and Type V PDE isozymes used were those partially purified from the blood platelets (Type III and Type V) or neutrophils (Type IV) taken from rats. Each enzyme source was homogenized in a buffer (pH6.5) containing 20 mM Bis-Tris, EDTA (ethylene diamine tetraacetate) 2 mM, PMSF (phenylmethylsulfonyl fluoride) 0.1 mM, 2-mercaptoethanol 5 mM, pepstatin 0.001 mM, and leupeptin 0.01 mM and centrifuged at 30000×G for 30 minutes. The centrifuged supernatent was passed through an ion exchange column (Q Sepharose Fast Flow, made by Pharmacia) and eluted by 0-1M sodium acetate. The partially purified isozyme was identified by investigating the effects of known selective inhibitors.
(§2) The tested compound was dissolved in DMSO (dimethylsulfoxide) and added to 50 mM tris-HCl buffer containing 5 mM […]. To this reaction solution, the above PDE isozyme and ^3H-cAMP (when Type III or Type IV of PDE) or ^3H-cGMP (when Type I or Type V of PDE) was added, as a substrate, and the mixture reacted at 30° C. for 30 minutes. After the reaction, the reaction mixture was placed in a 100° C. boiling solution for 5 minutes to stop the reaction. The nucleotide produced by the PDE was decomposed by 5′-nucleotidase into ^3H-adenosine or ^3H-guanosine. The unreacted substrate and reaction product were passed through an ion exchange column (QAE Sephadex, made by Pharmacia)to separate them. The radioactivity of the eluted ^3H-nucleoside was measured by a liquid sintillation counter. The inhibitory activity of each tested compound was indicated by the IC50 value (μM). The inhibitory activity against Type IV was shown in Table 2, while the inhibitory activity against Type III was shown in Table 3. Further, the inhibitory activity of each test compound to Type I and Type V was less than 1/10 to Type IV.

For assay [2], the target named is T2, Type III PDE (Rattus norvegicus, UniProt Q62865).
T2 construct: from tissue; host or cells: rat blood platelets
T2 sequence (Q62865 1-1141): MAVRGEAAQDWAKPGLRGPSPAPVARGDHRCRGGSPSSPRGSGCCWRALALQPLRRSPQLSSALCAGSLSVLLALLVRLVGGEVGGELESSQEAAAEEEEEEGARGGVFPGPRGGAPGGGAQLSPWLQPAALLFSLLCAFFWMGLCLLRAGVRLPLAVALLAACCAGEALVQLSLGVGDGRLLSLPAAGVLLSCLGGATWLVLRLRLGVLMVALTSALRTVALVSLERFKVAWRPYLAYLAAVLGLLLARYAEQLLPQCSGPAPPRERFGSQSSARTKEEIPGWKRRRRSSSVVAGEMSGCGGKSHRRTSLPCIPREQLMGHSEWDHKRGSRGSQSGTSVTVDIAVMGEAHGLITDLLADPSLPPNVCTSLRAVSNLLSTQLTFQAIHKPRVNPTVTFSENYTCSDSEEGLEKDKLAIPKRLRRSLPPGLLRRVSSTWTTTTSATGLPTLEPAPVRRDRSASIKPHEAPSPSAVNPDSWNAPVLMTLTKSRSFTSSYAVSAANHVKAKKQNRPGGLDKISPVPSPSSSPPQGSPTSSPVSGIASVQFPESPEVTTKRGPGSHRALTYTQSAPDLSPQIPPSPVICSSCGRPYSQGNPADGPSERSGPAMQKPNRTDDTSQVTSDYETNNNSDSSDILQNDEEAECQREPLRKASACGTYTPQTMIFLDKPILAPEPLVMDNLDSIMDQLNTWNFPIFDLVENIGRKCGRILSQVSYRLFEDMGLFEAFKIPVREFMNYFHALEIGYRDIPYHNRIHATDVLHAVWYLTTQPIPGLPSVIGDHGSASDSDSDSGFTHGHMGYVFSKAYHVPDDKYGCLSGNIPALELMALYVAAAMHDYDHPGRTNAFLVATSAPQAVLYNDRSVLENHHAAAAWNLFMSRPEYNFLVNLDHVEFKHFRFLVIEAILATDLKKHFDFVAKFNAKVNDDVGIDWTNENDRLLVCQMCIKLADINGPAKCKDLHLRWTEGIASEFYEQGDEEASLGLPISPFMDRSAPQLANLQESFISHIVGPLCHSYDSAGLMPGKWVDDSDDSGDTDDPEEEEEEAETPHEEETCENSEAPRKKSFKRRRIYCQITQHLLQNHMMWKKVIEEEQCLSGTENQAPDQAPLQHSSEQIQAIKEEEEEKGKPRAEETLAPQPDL
In words: PDE III inhibitory activity (Test Example 1). To be noted: for IC50: Table I, PDE III partially purified from rat blood platelets, 3H-cAMP substrate; for PDE III inhibitory activity relative to that of the racemate: ratio to racemate. The class given is biochemical. On the procedure:
as §1, §2

Assay [3] has as its system Type IV PDE. Kind of assay: PDE IV inhibitory activity (Test Example 1). The assay is classed as biochemical, rat. The settings on record: PDE IV versus PDE III, compared with the racemate. On the procedure: as §1, §2
Setting [4] is: Table I, PDE IV partially purified from rat neutrophils.
Where [5] appears, read: Table II, PDE IV from rat neutrophils.
The mark [6] stands for this setting: listed as The compound of the present invention.

In general, IC50 refers to the concentration that inhibits the measured activity by half. A high value points to weaker potency in that assay.

Turning to `COc1ccc(NC2=C(C)C(=O)CC2)cc1O[C@@H]1C[C@H]2CC[C@@H]1C2` (racemic) [(±)-isomer, (±)-3-[3-[(1RS,2RS,4SR)-bicyclo[2.2.1]hept-2-yloxy]-4-methoxyanilino]-2-methyl-2-cyclopenten-1-one, reference compound], the IC50 in assay [1] (setting [4]) came out at 270 nM; in assay [1] (setting [5]) it was 270 nM; in assay [2], 3860 nM.
Regarding `COc1ccc(NC2=C(C)C(=O)CC2)cc1O[C@H]1C[C@@H]2CC[C@H]1C2` [(+)-isomer, (+)-3-[3-[(1S,2S,4R)-bicyclo[2.2.1]hept-2-yloxy]-4-methoxyanilino]-2-methyl-2-cyclopenten-1-one], the “selectivity with respect to PDE IV” value in assay [3] is “low”. Besides, the results for the IC50 in assay [1] (setting [4]), in assay [1] (setting [5]) and in assay [2] were 360 nM, 360 nM and 1570 nM, respectively. Also, the “PDE IV inhibitory activity relative to that of the racemate” value in assay [1] is on record as “about ¾”. In assay [2], the “PDE III inhibitory activity relative to that of the racemate” value is on record as “twice or more of that of the racemate”.
With `COc1ccc(NC2=C(C)C(=O)CC2)cc1O[C@@H]1C[C@H]2CC[C@@H]1C2` [(−)-isomer, (−)-3-[3-[(1R,2R,4S)-bicyclo[2.2.1]hept-2-yloxy]-4-methoxyanilino]-2-methyl-2-cyclopenten-1-one], the “selectivity with respect to PDE IV” value in assay [3] is on record as “high”. In addition, the values for the half-inhibitory concentration (IC50) in assay [1] (setting [4]), in assay [1] (setting [5]) and in assay [2] were 120 nM, 120 nM and 9030 nM, respectively. The “PDE IV inhibitory activity relative to that of the racemate” value in assay [1] was “about twice that of the racemate”; in assay [1] (setting [6]) it was “at least two times that of a racemate”. Also, the figures for the “PDE III inhibitory activity relative to that of the racemate” value in assay [2] and in assay [2] (setting [6]) were “less than half of that of the racemate” and “less than ½”, respectively.
